One assay has as its target T1, PI3Kδ (Homo sapiens, UniProt O00329).
T1 construct: The protein is full length and co-expressed with untagged PIK3R1; GST; purchased Invitrogen PV5274
Description: PI3Kδ inhibition, modified PIK3CD Adapta TR-FRET assay. Type of assay: biochemical. To be noted: recombinant GST-tagged full length PIK3CD co-expressed with PIK3R1 (p85α); 2 μM ATP, 50 μM PIP2. In outline:
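Inhibition was derived from % conversion against positive and negative controls, with ADP read by Adapta Eu-antibody/tracer TR-FRET. Room-temperature reactions used GST-PIK3CD/p85α in HEPES pH 7.5 buffer (MgCl2, EGTA, NaCl, CHAPS, fresh DTT), 1% DMSO final and 12 concentrations. They were initiated by adding 2 μM ATP/50 μM PIP2 solution.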
T1 sequence (O00329 whole entry): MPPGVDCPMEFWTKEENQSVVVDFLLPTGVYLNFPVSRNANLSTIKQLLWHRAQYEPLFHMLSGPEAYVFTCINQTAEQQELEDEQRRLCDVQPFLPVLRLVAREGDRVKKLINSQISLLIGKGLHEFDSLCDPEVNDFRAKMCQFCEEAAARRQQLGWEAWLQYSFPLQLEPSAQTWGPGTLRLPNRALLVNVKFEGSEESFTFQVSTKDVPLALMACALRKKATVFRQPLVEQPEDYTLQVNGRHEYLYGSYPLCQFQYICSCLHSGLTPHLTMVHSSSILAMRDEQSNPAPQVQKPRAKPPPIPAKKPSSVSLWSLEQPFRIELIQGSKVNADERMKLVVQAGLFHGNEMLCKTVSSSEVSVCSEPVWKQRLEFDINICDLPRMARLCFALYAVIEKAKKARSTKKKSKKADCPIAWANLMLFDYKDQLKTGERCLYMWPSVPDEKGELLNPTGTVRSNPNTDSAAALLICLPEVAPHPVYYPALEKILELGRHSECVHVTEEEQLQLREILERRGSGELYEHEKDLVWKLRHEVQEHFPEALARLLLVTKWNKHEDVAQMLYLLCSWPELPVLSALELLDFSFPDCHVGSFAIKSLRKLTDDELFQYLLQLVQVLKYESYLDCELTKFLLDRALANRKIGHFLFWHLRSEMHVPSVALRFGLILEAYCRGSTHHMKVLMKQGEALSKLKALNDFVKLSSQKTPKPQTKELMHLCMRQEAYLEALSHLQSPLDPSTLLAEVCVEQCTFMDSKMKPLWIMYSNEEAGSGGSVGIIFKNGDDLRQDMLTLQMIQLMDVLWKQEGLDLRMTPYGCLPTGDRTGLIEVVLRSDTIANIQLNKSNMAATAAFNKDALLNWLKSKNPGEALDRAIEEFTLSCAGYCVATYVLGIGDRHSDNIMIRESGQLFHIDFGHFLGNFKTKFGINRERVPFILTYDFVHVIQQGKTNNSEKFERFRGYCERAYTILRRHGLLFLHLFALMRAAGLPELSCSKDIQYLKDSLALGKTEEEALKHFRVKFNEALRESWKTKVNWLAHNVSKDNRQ
T1 sequence (P27986 whole entry partner): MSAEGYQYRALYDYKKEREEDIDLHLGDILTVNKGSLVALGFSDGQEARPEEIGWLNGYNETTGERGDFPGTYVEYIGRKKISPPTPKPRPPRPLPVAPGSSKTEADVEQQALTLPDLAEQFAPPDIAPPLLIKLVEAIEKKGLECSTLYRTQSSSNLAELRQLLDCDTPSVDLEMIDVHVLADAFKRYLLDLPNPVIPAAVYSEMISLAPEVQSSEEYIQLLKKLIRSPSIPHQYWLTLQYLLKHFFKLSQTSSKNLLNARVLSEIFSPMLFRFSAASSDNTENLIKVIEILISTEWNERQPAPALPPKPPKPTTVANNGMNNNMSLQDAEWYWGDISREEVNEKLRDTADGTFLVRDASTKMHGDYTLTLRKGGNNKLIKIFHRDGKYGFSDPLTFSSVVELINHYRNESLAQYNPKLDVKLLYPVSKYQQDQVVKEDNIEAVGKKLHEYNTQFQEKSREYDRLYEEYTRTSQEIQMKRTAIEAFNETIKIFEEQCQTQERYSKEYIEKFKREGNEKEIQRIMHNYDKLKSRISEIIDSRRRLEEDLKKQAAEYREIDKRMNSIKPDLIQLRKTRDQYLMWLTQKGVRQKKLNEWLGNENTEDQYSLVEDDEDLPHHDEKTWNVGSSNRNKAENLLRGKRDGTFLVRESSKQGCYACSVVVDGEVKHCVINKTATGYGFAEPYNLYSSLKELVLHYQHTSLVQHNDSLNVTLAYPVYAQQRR
In the case of `Cc1ccc([C@H](C)N2C(=O)[C@H]3COCCN3c3nc(-c4cccc5[nH]ccc45)ncc32)cc1` [Example 154, (R)-2-(1H-indol-4-yl)-5-((5)-1-p-tolylethyl)-6a,7,9,10-tetrahydro-[1,4]oxazino[3,4-h]pteridin-6(5H)-one], the “PI3Kδ Inhibition (pIC50)” value came out at 6.9.

Staying with this assay, now noted: recombinant GST-tagged full length PIK3CD co-expressed with PIK3R1 (p85α); 2 μM ATP, 50 μM PIP2; read-out: PI3Kδ Inhibition (pIC50) (converted).
In the case of `CNC(=O)c1cccc(-c2ncc3c(n2)N2CCOCC2C(=O)N3Cc2ccc(S(C)(=O)=O)cc2)c1` (stereo not drawn) [Example 122, N-methyl-3-(5-(4-(methylsulfonyl)benzyl)-6-oxo-5,6,6a,7,9,10-hexahydro-[1,4]oxazino[3,4-h]pteridin-2-yl)benzamide], the IC50 is 1000 nM.

Regarding `CS(=O)(=O)c1ccc(CN2C(=O)C3COCCN3c3nc(-c4cccc5[nH]ccc45)ncc32)cc1` (stereo not drawn) [Example 123, 2-(1H-indol-4-yl)-5-(4-(methylsulfonyl)benzyl)-6a,7,9,10-tetrahydro-[1,4]oxazino[3,4-h]pteridin-6(5H)-one], the IC50 was 0.794 nM.

As for `CS(=O)(=O)c1ccc(CN2C(=O)C3COCCN3c3nc(-c4ccc5cn[nH]c5c4)ncc32)cc1` (stereo not drawn) [Example 124, 2-(1H-indazol-6-yl)-5-(4-(methylsulfonyl)benzyl)-6a,7,9,10-tetrahydro-[1,4]oxazino[3,4-h]pteridin-6(5H)-one], the IC50 is 3980 nM. For the compound `CS(=O)(=O)c1ccc(CN2C(=O)C3COCCN3c3nc(-c4cnc(N)nc4)ncc32)cc1` (stereo not drawn) [Example 125, 2-(2-aminopyrimidin-5-yl)-5-(4-(methylsulfonyl)benzyl)-6a,7,9,10-tetrahydro-[1,4]oxazino[3,4-h]pteridin-6(5H)-one], the IC50 was 10 nM. The same measure, in the same setting: next, `CS(=O)(=O)c1ccc(CN2C(=O)C3COCCN3c3nc(-c4ccc5[nH]ccc5c4)ncc32)cc1` (stereo not drawn) [Example 127, 2-(1H-indol-5-yl)-5-(4-(methylsulfonyl)benzyl)-6a,7,9,10-tetrahydro-[1,4]oxazino[3,4-h]pteridin-6(5H)-one]: 126 nM; `CS(=O)(=O)c1ccc(CN2C(=O)C3COCCN3c3nc(-c4cccc(-n5cccn5)c4)ncc32)cc1` (stereo not drawn) [Example 128, 2-(3-(1H-pyrazol-1-yl)phenyl)-5-(4-(methylsulfonyl)benzyl)-6a,7,9,10-tetrahydro-[1,4]oxazino[3,4-h]pteridin-6(5H)-one]: 501 nM; `Cc1n[nH]cc1-c1ncc2c(n1)N1CCOCC1C(=O)N2Cc1ccc(S(C)(=O)=O)cc1` (stereo not drawn) [Example 130]: 126 nM. Still for that read-out and setting: next, `CS(=O)(=O)c1ccc(CN2C(=O)C3COCCN3c3nc(-c4ccc(N)c(N)c4)ncc32)cc1` (stereo not drawn) [Example 131, 2-(3,4-diaminophenyl)-5-(4-(methylsulfonyl)benzyl)-6a,7,9,10-tetrahydro-[1,4]oxazino[3,4-h]pteridin-6(5H)-one]: 126 nM; `CS(=O)(=O)c1ccc(CN2C(=O)C3COCCN3c3nc(-c4cccc(N5CCCS5(=O)=O)c4)ncc32)cc1` (stereo not drawn) [Example 132, 2-(3-(1,1-dioxidoisothiazolidin-2-yl)phenyl)-5-(4-(methylsulfonyl)benzyl)-6a,7,9,10-tetrahydro-[1,4]oxazino[3,4-h]pteridin-6(5H)-one]: 6310 nM; `CS(=O)(=O)c1ccc(CN2C(=O)C3COCCN3c3nc(-c4c[nH]c5c(Cl)cccc45)ncc32)cc1` (stereo not drawn) [Example 134, 2-(7-chloro-1H-indol-3-yl)-5-(4-(methylsulfonyl)benzyl)-6a,7,9,10-tetrahydro-[1,4]oxazino[3,4-h]pteridin-6(5H)-one]: over 100 nM. As to `COc1ccc2c(-c3ncc4c(n3)N3CCOCC3C(=O)N4Cc3ccc(S(C)(=O)=O)cc3)c[nH]c2c1` (stereo not drawn) [Example 136, 2-(6-methoxy-1H-indol-3-yl)-5-(4-(methylsulfonyl)benzyl)-6a,7,9,10-tetrahydro-[1,4]oxazino[3,4-h]pteridin-6(5H)-one], the IC50 is 501 nM. For the compound `CS(=O)(=O)c1ccc(CN2C(=O)C3COCCN3c3nc(-c4c[nH]c5ncccc45)ncc32)cc1` (stereo not drawn) [Example 137, 5-(4-(methylsulfonyl)benzyl)-2-(1H-pyrrolo[2,3-b]pyridin-3-yl)-6a,7,9,10-tetrahydro-[1,4]oxazino[3,4-h]pteridin-6(5H)-one], the IC50 was 501 nM. Same read-out and setting: as for `COc1cccc2c(-c3ncc4c(n3)N3CCOCC3C(=O)N4Cc3ccc(S(C)(=O)=O)cc3)c[nH]c12` (stereo not drawn) [Example 138, 2-(7-methoxy-1H-indol-3-yl)-5-(4-(methylsulfonyl)benzyl)-6a,7,9,10-tetrahydro-[1,4]oxazino[3,4-h]pteridin-6(5H)-one], the figure is 3160 nM; as for `CS(=O)(=O)c1ccc(CN2C(=O)C3COCCN3c3nc(-c4cccc5[nH]cnc45)ncc32)cc1` (stereo not drawn) [Example 139, 2-(1H-benzo[d]imidazol-4-yl)-5-(4-(methylsulfonyl)benzyl)-6a,7,9,10-tetrahydro-[1,4]oxazino[3,4-h]pteridin-6(5H)-one], 79.4 nM. On the same count and under the same terms, as for `COc1cc(-c2ncc3c(n2)N2CCOCC2C(=O)N3Cc2ccc(S(C)(=O)=O)cc2)ccn1` (stereo not drawn) [Example 140, 2-(2-methoxypyridin-4-yl)-5-(4-(methylsulfonyl)benzyl)-6a,7,9,10-tetrahydro-[1,4]oxazino[3,4-h]pteridin-6(5H)-one], the figure is 631 nM.

With `CS(=O)(=O)c1ccc(CN2C(=O)C3COCCN3c3nc(-c4cc(N)ccn4)ncc32)cc1` (stereo not drawn) [Example 141, 2-(4-aminopyridin-2-yl)-5-(4-(methylsulfonyl)benzyl)-6a,7,9,10-tetrahydro-[1,4]oxazino[3,4-h]pteridin-6(5H)-one], the IC50 was over 10000 nM. Same read-out and setting: as for `CS(=O)(=O)c1ccc(CN2C(=O)C3COCCN3c3nc(-c4ccc(F)c5[nH]ccc45)ncc32)cc1` (stereo not drawn) [Example 142, 2-(7-fluoro-1H-indol-4-yl)-5-(4-(methylsulfonyl)benzyl)-6a,7,9,10-tetrahydro-[1,4]oxazino[3,4-h]pteridin-6(5H)-one], the figure is 20 nM. `Cc1c[nH]c2c(F)ccc(-c3ncc4c(n3)N3CCOCC3C(=O)N4Cc3ccc(S(C)(=O)=O)cc3)c12` (stereo not drawn) [Example 143, 2-(7-fluoro-3-methyl-1H-indol-4-yl)-5-(4-(methylsulfonyl)benzyl)-6a,7,9,10-tetrahydro-[1,4]oxazino[3,4-h]pteridin-6(5H)-one]: the IC50 was 2000 nM.

In the case of `CS(=O)(=O)c1ccc(CN2C(=O)C3COCCN3c3nc(-c4cncc5[nH]ccc45)ncc32)cc1` (stereo not drawn) [Example 144, 5-(4-(methylsulfonyl)benzyl)-2-(1H-pyrrolo[2,3-c]pyridin-4-yl)-6a,7,9,10-tetrahydro-[1,4]oxazino[3,4-h]pteridin-6(5H)-one], the IC50 was 2.51 nM. Same read-out and setting: as for `O=C1C2COCCN2c2nc(-c3cccc4[nH]ccc34)ncc2N1Cc1ccccc1` (stereo not drawn) [Example 145, 5-benzyl-2-(1H-indol-4-yl)-6a,7,9,10-tetrahydro-[1,4]oxazino[3,4-h]pteridin-6(5H)-one], the figure is 25.1 nM; as for `O=C1C2COCCN2c2nc(-c3cccc4[nH]ccc34)ncc2N1C1CCc2ccc(Cl)cc21` (stereo not drawn) [Example 146, 5-(6-chloro-2,3-dihydro-1H-inden-1-yl)-2-(1H-indol-4-yl)-6a,7,9,10-tetrahydro-[1,4]oxazino[3,4-h]pteridin-6(5H)-one], 31.6 nM. Regarding `CNC(=O)Nc1ccc(-c2ncc3c(n2)N2CCOCC2C(=O)N3C2CCc3ccc(Cl)cc32)cc1` (stereo not drawn) [Example 147, 1-(4-(5-(6-chloro-2,3-dihydro-1H-inden-1-yl)-6-oxo-5,6,6a,7,9,10-hexahydro-[1,4]oxazino[3,4-h]pteridin-2-yl)phenyl)-3-methylurea], the IC50 was 20 nM. `CNC(=O)Nc1ccc(-c2ncc3c(n2)N2CCOCC2C(=O)N3C2CCc3ccc(OC)cc32)cc1` (stereo not drawn) [Example 148, 1-(4-(5-(6-methoxy-2,3-dihydro-1H-inden-1-yl)-6-oxo-5,6,6a,7,9,10-hexahydro-[1,4]oxazino[3,4-h]pteridin-2-yl)phenyl)-3-methylurea]: the IC50 was 3.98 nM.

`O=C1Nc2cnc(-c3cccc4c3OCO4)nc2N2CCOCC12` (stereo not drawn) [Example 151, 2-(benzo[d][1,3]dioxol-4-yl)-6a,7,9,10-tetrahydro-[1,4]oxazino[3,4-h]pteridin-6(5H)-one]: the IC50 is 5010 nM. As to `O=C1Nc2cnc(-c3cccc4[nH]cnc34)nc2N2CCOCC12` (stereo not drawn) [Example 152, 2-(1H-benzo[d]imidazol-4-yl)-6a,7,9,10-tetrahydro-[1,4]oxazino[3,4-h]pteridin-6(5H)-one], the IC50 was 501 nM. On the same count and under the same terms, next, `CS(=O)(=O)c1ccc(CN2C(=O)C3COCCN3c3nc(-c4ccnc5[nH]ccc45)ncc32)cc1` (stereo not drawn) [Example 155, 5-(4-(methylsulfonyl)benzyl)-2-(1H-pyrrolo[2,3-b]pyridin-4-yl)-6a,7,9,10-tetrahydro-[1,4]oxazino[3,4-h]pteridin-6(5H)-one]: 25.1 nM. As for `Cc1nccn1-c1ncc2c(n1)N1CCOCC1C(=O)N2Cc1ccc(S(C)(=O)=O)cc1` (stereo not drawn) [Example 156, 2-(2-methyl-1H-imidazol-1-yl)-5-(4-(methylsulfonyl)benzyl)-6a,7,9,10-tetrahydro-[1,4]oxazino[3,4-h]pteridin-6(5H)-one], the IC50 was 316 nM. The same measure, in the same setting: next, `Cc1nnc(CN2C(=O)C3COCCN3c3nc(-n4c(C(F)F)nc5ccccc54)ncc32)o1` (stereo not drawn) [Example 157, 2-(2-(difluoromethyl)-1H-benzo[d]imidazol-1-yl)-5-((5-methyl-1,3,4-oxadiazol-2-yl)methyl)-6a,7,9,10-tetrahydro-[1,4]oxazino[3,4-h]pteridin-6(5H)-one]: 39.8 nM; `CNC(=O)Nc1ccc(-c2ncc3c(n2)N2CCOCC2C(=O)N3C2CCOCC2)cc1` (stereo not drawn) [Example 158, 1-methyl-3-(4-(6-oxo-5-(tetrahydro-2H-pyran-4-yl)-5,6,6a,7,9,10-hexahydro-[1,4]oxazino[3,4-h]pteridin-2-yl)phenyl)urea]: 7.94 nM.

For the origin of these results see patent publication US8791107B2, “N-substituted oxazinopteridines and oxazinopteridinones” (Takeda Pharmaceutical Company Limited, priority 2011, dated 2014).
